Assay results published in ChEMBL document CHEMBL3430912, “GSK Tres Cantos Anti-Kinetoplastid Screening (TCAKS) Data”.
pIC50: −log10 of the molar value.

Legend:
Trypanosoma cruzi [1] = test: GSK_TCAKS: pIC50 Trypanosoma cruzi viability assay using beta-GAL activity. This assay was run at single shot at 5uM compound concentration per well. The biological reagents consisted of NIH-3T3 host cells and trypomastigotes parasitic cells; both cell types were set to a 3.3 * 10^5 cells/mL dilution in assay DMEM by means of a CASY cell counter device using a 60um capillary. 6 uL of the mixture were dispensed per well (about 1 * 10^3 host-cells and 1 * 10^3 parasites) with a Multidrop Combi dispenser. […] In all wells, the percentage of DMSO never exceeded 0.5%. Plates incubated for four days at 37C, 5% CO2. The substrate used for the assay fluorescence intensity (FLINT) readout was resorufin-beta-D-galactopiranoside (Sigma-Aldrich) at 5uM per well. It was diluted in PBS supplemented with the soft detergent Igepal (Fluka).; type: functional, organism-based, Mus musculus; conditions: Tulahuen, NIH3T3
Trypanosoma cruzi [2] = test: (§1) GSK_TCAKS: pIC50 Trypanosoma cruzi Imaging: Infected Cells. […] Cells were then washed once with PBS before infection. T. cruzi trypomastigotes, collected at days 5 to 8 after infection from LLC-MK2 parasite infected cultures, were allowed to swim out for 4h at 37C from a centrifuged pellet (2,500 rpm/10 min/room temperature). Trypomastigotes were then collected and counted in a CASY Cell Counter. Trypomastigotes, in supplemented DMEM, were added to H9c2 cultures in a multiplicity of infection of 1 and incubated for 18 h. Cells were washed once with PBS before incubation of the infected H9c2 monolayer with trypsin (Life-Technologies) to detach cells from the flask. Cells were counted in a CASY Cell Counter using a 150 um capillary and their density set at 5 * 10^4 cells per mL in supplemented assay DMEM. Infected H9c2 were dispensed into 384-well poly-lysine coated assay plates at 50uL per well using a Multidrop Combi dispenser. After seeding them, the plates were incubated at 37C, 5% CO2 for 72h. Cultures were then fixed and stained by addition of 50 uL of a solution containing 8% formaldehyde and 4 uM DRAQ5 DNA dye (BioStatus, UK) per well. […] Five images were collected per well for reliable statistical analysis. Automated image analysis was performed with a script developed on Acapella High Content Imaging and Analysis Software (PerkinElmer). Output: percentage of infected cells per well as a second infection marker.; type: functional, organism-based, Rattus norvegicus; conditions: H9c2, 4 h
Trypanosoma cruzi [3] = test: GSK_TCAKS: pIC50 Trypanosoma cruzi Imaging: Amastigotes/Cell. […] Cells were then washed once with PBS before infection. T. cruzi trypomastigotes, collected at days 5 to 8 after infection from LLC-MK2 parasite infected cultures, were allowed to swim out for 4h at 37C from a centrifuged pellet (2,500 rpm/10 min/room temperature). Trypomastigotes were then collected and counted in a CASY Cell Counter. Trypomastigotes, in supplemented DMEM, were added to H9c2 cultures in a multiplicity of infection of 1 and incubated for 18 h. Cells were washed once with PBS before incubation of the infected H9c2 monolayer with trypsin (Life-Technologies) to detach cells from the flask. Cells were counted in a CASY Cell Counter using a 150 um capillary and their density set at 5 * 10^4 cells per mL in supplemented assay DMEM. Infected H9c2 were dispensed into 384-well poly-lysine coated assay plates at 50uL per well using a Multidrop Combi dispenser. After seeding them, the plates were incubated at 37C, 5% CO2 for 72h. Cultures were then fixed and stained by addition of 50 uL of a solution containing 8% formaldehyde and 4 uM DRAQ5 DNA dye (BioStatus, UK) per well. […] Five images were collected per well for reliable statistical analysis. Automated image analysis was performed with a script developed on Acapella High Content Imaging and Analysis Software (PerkinElmer). Output: number of amastigotes per cell as infection level measurement.; type: functional, organism-based, Rattus norvegicus; conditions: H9c2, 4 h
Trypanosoma cruzi [4] = test: as §1, with “H2C9” for “Trypanosoma cruzi”, “H9c2 Host Cardiomyocytes.” for “Infected Cells.”, “Number” for “percentage”, “H9c2 Host Cardiomyocytes nuclei to determine drug-related cytotoxicity.” for “infected cells per well as a second infection marker.”; type: functional, organism-based, Rattus norvegicus; conditions: H9c2, 4 h
Leishmania donovani [5] = test: GSK_TCAKS: pIC50 Leishmania donovani viability assay using fluorescence intensity. Assay plates (1536-well) were prepared by adding 30nL per well of compound. For single shot assay, the final compound concentration was 5uM. […] Briefly, eGFP LdBOB axenic amastigotes were harvested, fixed and counted in a CASY cell counter (Roche-Applied Science). A final concentration of 1.5 * 10^5 cells per well were prepared in amastigote media containing 500 U/mL penicillin/streptomycin (Invitrogen) and 6uL was dispensed to each experimental well using a Multidrop Combi dispenser (Thermo Scientific). 6uL of assay media was dispensed to control columns used as reference for 100% compound response. Following incubation for 72 h at 37C, 5% CO2, 2 uL of resazurin was added to each well at a final concentration of 0.5 mM in phosphate buffered saline (PBS) with IGEPAL (Sigma-Aldrich), 0.05% (v/v).; type: functional, organism-based
Leishmania donovani [6] = test: (§2) GSK_TCAKS: pIC50 Leishmania donovani Imaging: Infected Macrophages. Assay plates (384-well) were prepared by adding 250nL of compound to each well. For single shot assay, the final compound concentration was 5 uM. […] Automated image analysis was performed with a script developed on Acapella High Content Imaging and Analysis Software (PerkinElmer). Output: Percent of infected macrophage cells were reported for each well.; type: functional, organism-based, Homo sapiens; conditions: THP-1
Leishmania donovani [7] = test: as §2, with “Amastigotes/Macrophages.” for “Infected Macrophages.”, “Average number” for “Percent”, “amastigotes per” for “infected”, “cell” for “cells”; type: functional, organism-based, Homo sapiens; conditions: THP-1
Leishmania donovani [8] = test: as §2, with “THP-1 Host” for “Infected”, “THP-1 cell count” for “Percent of infected macrophage cells”; type: functional, organism-based, Homo sapiens
[9] = tested on: Trypanosoma brucei brucei; test: GSK_TCAKS: pIC50 Trypanosoma brucei viability assay using fluorescence intensity. Assay plates (1536-well) were prepared by dispensing 25nL of compound solution per well using an Echo acoustic dispenser (Labcyte).; type: functional, organism-based; conditions: Lister 427, 2 h
[10] = tested on: Trypanosoma brucei brucei; test: GSK_TCAKS: pIC50 Trypanosoma brucei viability assay using luminiscence. Assay plates (1536-well) were prepared. T. brucei cultures were harvested and counted in a CASY cell counter. A parasite suspension was prepared at a final concentration of 5 * 10^4 cells/mL in complete HMI9 medium and 6uL was dispensed to all wells containing compounds using a Multidrop Combi dispenser. 6uL of HMI9 media with 0.4% DMSO were dispensed to control columns. Plates were incubated for 24 h at 37C, 5% CO2 then tempered for 10 min at room temperature. ATP content was quantified by adding 4 uL of CellTiter-Glo Reagent (Promega) according to the manufacturer's instructions. Luminescence was measured using a ViewLux.; type: functional, organism-based; conditions: Lister 427, CASY
[11] = GSK_TCAKS: pIC50 HepG2 human cell line viability assay using luminiscence. […] Seeding density was checked to ensure that new mono-layers were not more than 50% confluent at the time of harvesting. Cell suspension was added to 500 mL of the same medium at a final density of 1.2 * 10^5 cells/mL. This cell suspension was dispensed (25 uL, 3000 cells per well) into 384-well clear-bottom plates using a Multidrop Combi dispenser. Prior to addition of the cell suspension, the screening compounds (250 nL) were pre-dispensed into the plates with an Echo liquid handler. Plates were incubated for 48 h at 37C, 5% CO2. After incubation, plates equilibrated at room temperature for 30 min before proceeding to develop the luminescent signal. The signal developer, CellTiter-Glo Reagent, was allowed to equilibrate at room temperature for 30 min and added to the plates (25uL per well) using a Multidrop Combi dispenser. Plates were left for 10 min at room temperature for stabilization and then read using a ViewLux.; type: toxicity, cell-based
NIH3T3 = test: GSK_TCAKS: pIC50 NIH 3T3 cell line viability assay using luminiscence. Tissue culture surface treated assay plates (1536-well) were used. […] The 100% cells survival control was determined exposing the host-cells to a 0.5% DMSO concentration, whereas the 100% toxicity control was achieved by seeding the cells in presence of Amphotericin B at 50uM. Plates were incubated for four days at 37C, 5% CO2. The assay readout was developed by addition of 5uL of CellTiter-Glo Reagent following the manufacturer's instructions. Luminiscence was measured using a ViewLux.; type: functional, cell-based; conditions: Mus musculus, NIH3T3, 96 h
[12] = target: Sterol 14-alpha demethylase (Trypanosoma cruzi (strain CL Brener), UniProt Q7Z1V1); test: GSK_TCAKS: pIC50 CYP51 from Trypanosoma cruzi.; type: functional
Sterol 14-alpha demethylase, sequence (Q7Z1V1 whole entry): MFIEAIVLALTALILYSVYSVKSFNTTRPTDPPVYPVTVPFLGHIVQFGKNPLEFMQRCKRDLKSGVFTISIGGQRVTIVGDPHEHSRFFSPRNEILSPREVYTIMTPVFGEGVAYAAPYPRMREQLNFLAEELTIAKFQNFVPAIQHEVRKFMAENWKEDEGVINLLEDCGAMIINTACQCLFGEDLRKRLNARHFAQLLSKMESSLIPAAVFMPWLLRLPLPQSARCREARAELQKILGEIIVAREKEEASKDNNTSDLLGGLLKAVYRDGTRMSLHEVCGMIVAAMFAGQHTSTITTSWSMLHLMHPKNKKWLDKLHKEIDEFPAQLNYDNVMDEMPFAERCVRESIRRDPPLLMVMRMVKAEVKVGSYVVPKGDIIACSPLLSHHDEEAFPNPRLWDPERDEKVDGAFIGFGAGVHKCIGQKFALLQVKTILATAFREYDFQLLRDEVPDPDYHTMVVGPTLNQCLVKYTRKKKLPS

SMILES	pIC50 (Trypanosoma cruzi [1])	pIC50 (Trypanosoma cruzi [2])	pIC50 (Trypanosoma cruzi [3])	pIC50 (Trypanosoma cruzi [4])	pIC50 (Leishmania donovani [5])	pIC50 (Leishmania donovani [6])	pIC50 (Leishmania donovani [7])	pIC50 (Leishmania donovani [8])	pIC50 [9]	pIC50 [10]	IC50 at 48 h [11]	pIC50 (NIH3T3)	pIC50 [12]
Cc1nccn1C1CCCN(C(=O)c2cc3c(F)cccc3s2)C1 (centres undefined)	6.20	6.00	6.10	< 4.30	5.30	< 4.30	< 4.30	< 4.30	< 4.40	< 4.40	> 100 µM	4.70	4.30
Cc1cc2cncn2c(C2CCCCN2C(=O)c2cccs2)n1 (centres undefined)	7.60	7.20	7.20	< 4.30	6.40	< 4.30	< 4.30	< 4.30	< 4.40	< 4.40	> 100 µM	< 4.30	7.00
CC(Cn1ccnc1)NC(=O)C1CC1c1cccc(Cl)c1Cl (centres undefined)	6.85	6.60	6.70	< 4.30	4.80	< 4.30	5.00	< 4.30	< 4.40	< 4.40	> 100 µM	< 4.30	6.90
COc1ccc2ncc(F)c(NC(=O)[C@]3(O)CC[C@@H](NCc4ccc5c(c4)OCCO5)CC3)c2n1	6.80	6.90	6.80	4.50	4.40	4.50	4.80	4.70	6.10	5.80	50.1 µM	5.10	4.20
O=C(C1CCCCC1)N1CCN(c2nnc(-c3ccccc3)c3ccccc23)CC1	6.00	6.20	6.40	< 4.30	< 4.30	< 4.30	4.70	4.30	5.00	< 4.40	> 100 µM	< 4.30	< 4.00
O=C(Cn1cnc2cc([N+](=O)[O-])ccc2c1=O)NCCc1ccc(Cl)cc1Cl	6.20	6.40	6.70	< 4.30	< 4.30	< 4.30	< 4.30	< 4.30	4.90	< 4.40	> 100 µM	< 4.30	< 4.00
O=c1ccn(-c2ccc([N+](=O)[O-])cc2Cl)c2ccc(F)cc12	5.80	5.40	5.90	< 4.30	< 4.30	< 4.30	< 4.30	< 4.30	4.60	< 4.40	> 100 µM	< 4.30	4.80
CN(C(=O)Nc1ccc2c(c1)CCN(C1CCC1)CC2)c1ccc(C#N)cc1	5.70	5.40	5.70	< 4.30	4.40	< 4.30	< 4.30	< 4.30	6.70	6.20	> 100 µM	4.40	< 4.00
